Test results: patent US20260027221A1, “Targeted Pyrrolobenzodiazapine Conjugates” (BeOne Medicines I GmbH, priority 2023, published 2026)

Assays:
[1] = system: A375 cells; assay: Compounds cellular killing in A375 cancer line (Cell Titer-Glo, 6 days); format: cell-based, human; conditions: Homo sapiens, A-375, 144 h, 6 days incubation, cell viability by Cell Titer-Glo
Procedure: (§1) A375 (ATCC, CRL-1619). […] The base medium for A375 is DMEM, high glucose, GlutaMAX™ Supplement (Gibco, 10566024). To make the complete growth medium, fetal bovine serum was added to the base mediumat a final concentration of 10% (Gibco, 10099-141C). The cell line was grown in a humidified 5% CO2 atmosphere at 37° C., and was regularly tested for the presence of mycoplasma with MycoAlert™ PLUS Mycoplasma Detection Kit (Lonza, LT07-710).
(§2) Payload direct killing by compounds 1-1 to 1-22 was assessed in A375 and Calu-6 cancer cell lines. Cells were seeded at 1E3/well (A375) 2E3/well (Calu-6) into 96-well plates (Greiner: 655090), 100 μL/well, and incubated at 37° C., 5% CO2, overnight. Fresh growth medium was added containing varying concentrations of compounds, 50 μL/well, and incubated at 37° C., 5% CO2, for 6 days. The cell viability detected by Cell Titer-Glo (Promega, G7573), 70 μL/well. The plates were allowed to incubate at room temperature for 10 minutes to stabilize the luminescent signal. The plates were analyzed with a microplate reader.

[2] = system: Calu-6 cells; assay: Compounds cellular killing in Calu-6 cancer line (Cell Titer-Glo, 6 days); format: cell-based, human; conditions: Homo sapiens, Calu-6, 144 h, 6 days incubation, cell viability by Cell Titer-Glo
Procedure: as §1, with “Calu-6” for “A375”, “HTB-56).” for “CRL-1619).”, “Eagle's Minimum Essential Medium (ATCC, 30-2003).” for “DMEM, high glucose, GlutaMAX™ Supplement (Gibco, 10566024).”
as §2

Structure (SMILES)	EC50 [1] [nM]	Emax [1] [%]	EC50 [2] [nM]	Emax [2] [%]
COc1cc2c(cc1OCc1cccc(COc3cc4c(cc3OC)C(=O)N3CC5(CC5)C[C@H]3C=N4)c1)N=C[C@@H]1CC3(CC3)CN1C2=O [Compound 1-8, (11aS,11a″S)-8,8″-((1,3-phenylenebis(methylene))bis(oxy))bis(7-methoxy-1,11a-dihydro-3H,5H-spiro[benzo[e]pyrrolo[1,2-a][1,4]diazepine-2,1′-cyclopropan]-5-one)]	0.029	99.2	0.005	98.4
COc1cc2c(cc1OCCCCCOc1cc3c(cc1OC)C(=O)N1CC4(CC4)C[C@H]1C=N3)N=C[C@@H]1Cc3ccccc3CN1C2=O [Compound 1-1, (S)-2-methoxy-3-((5-(((S)-7-methoxy-5-oxo-5,11a-dihydro-1H,3H-spiro[benzo[e]pyrrolo[1,2-a][1,4]diazepine-2,1′-cyclopropan]-8-yl)oxy)pentyl)oxy)-7,12-dihydrobenzo[5,6][1,4]diazepino[1,2-b]isoquinolin-14(6aH)-one]	0.005	99.8	0.002	99.5
COc1cc2c(cc1OCCCCCOc1cc3c(cc1OC)C(=O)N1CC4(CC4)C[C@H]1C=N3)N=C[C@@H]1CCCCN1C2=O [Compound 1-16, (S)-7-methoxy-8-((5-(((S)-2-methoxy-12-oxo-6a,7,8,9,10,12-hexahydrobenzo[e]pyrido[1,2-a][1,4]diazepin-3-yl)oxy)pentyl)oxy)-1,11a-dihydro-3H,5H-spiro[benzo[e]pyrrolo[1,2-a][1,4]diazepine-2,1′-cyclopropan]-5-one]	0.146	89.6	0.038	92.3
C=C1C[C@H]2C=Nc3cc(OCCNCCOc4cc5c(cc4OC)C(=O)N4CC(=C)C[C@H]4C=N5)c(OC)cc3C(=O)N2C1 [Compound 1-21, (11aS,11a'S)-8,8′-((azanediylbis(ethane-2,1-diyl))bis(oxy))bis(7-methoxy-2-methylene-1,2,3,11a-tetrahydro-5H-benzo[e]pyrrolo[1,2-a][1,4]diazepin-5-one)]	4.2	97.8	1.2	99.3
COc1cc2c(cc1OCC13CC(COc4cc5c(cc4OC)C(=O)N4CC6(CC6)C[C@H]4C=N5)(C1)C3)N=C[C@@H]1Cc3ccccc3CN1C2=O [Compound 1-11, (S)-2-methoxy-3-((3-((((S)-7-methoxy-5-oxo-5,11a-dihydro-1H,3H-spiro[benzo[e]pyrrolo[1,2-a][1,4]diazepine-2,1′-cyclopropan]-8-yl)oxy)methyl)bicyclo[1.1.1]pentan-1-yl)methoxy)-7,12-dihydrobenzo[5,6][1,4]diazepino[1,2-b]isoquinolin-14(6aH)-one]	6.11	99.9	0.34	99.4
COc1cc2c(cc1OCc1cccc(COc3cc4c(cc3OC)C(=O)N3CC5(CC5)C[C@H]3C=N4)n1)N=C[C@@H]1CC3(CC3)CN1C2=O [Compound 1-17, (11aS,11a″S)-8,8″-((pyridine-2,6-diylbis(methylene))bis(oxy))bis(7-methoxy-1,11a-dihydro-3H,5H-spiro[benzo[e]pyrrolo[1,2-a][1,4]diazepine-2,1′-cyclopropan]-5-one)]	0.017	99.9	0.005	99.7
COc1ccc(C2=CN3C(=O)c4cc(OC)c(OCCCCCOc5cc6c(cc5OC)C(=O)N5CCC7(CC7)C[C@H]5C=N6)cc4NC[C@@H]3C2)cc1 [Compound 1-6, (S)-2-methoxy-3-((5-(((S)-7-methoxy-2-(4-methoxyphenyl)-5-oxo-5,10,11,11a-tetrahydro-1H-benzo[e]pyrrolo[1,2-a][1,4]diazepin-8-yl)oxy)pentyl)oxy)-6a,7,9,10-tetrahydro-12H-spiro[benzo[e]pyrido[1,2-a][1,4]diazepine-8,1′-cyclopropan]-12-one]	0.067	97.5	0.033	97.6
COc1cc2c(cc1OCCCCCOc1cc3c(cc1OC)C(=O)N1Cc4ccccc4C[C@H]1CN3)N=C[C@@H]1CC3(CC3)CN1C2=O [Compound 1-2, (S)-2-methoxy-3-((5-(((S)-7-methoxy-5-oxo-5,11a-dihydro-1H,3H-spiro[benzo[e]pyrrolo[1,2-a][1,4]diazepine-2,1′-cyclopropan]-8-yl)oxy)pentyl)oxy)-6,6a,7,12-tetrahydrobenzo[5,6][1,4]diazepino[1,2-b]isoquinolin-14(5H)-one]	0.118	98	0.052	97.6
COc1cc2c(cc1OCCCCCOc1cc3c(cc1OC)C(=O)N1CC4(CC4)C[C@H]1CN3)N=C[C@@H]1Cc3ccccc3CN1C2=O [Compound 1-3, (S)-2-methoxy-3-((5-(((S)-7-methoxy-5-oxo-5,10,11,11a-tetrahydro-1H,3H-spiro[benzo[e]pyrrolo[1,2-a][1,4]diazepine-2,1′-cyclopropan]-8-yl)oxy)pentyl)oxy)-7,12-dihydrobenzo[5,6][1,4]diazepino[1,2-b]isoquinolin-14(6aH)-one]	0.002	99.9	0.001	99.3
COc1cc2c(cc1OC/C=C/CCOc1cc3c(cc1OC)C(=O)N1CC4(CC4)C[C@H]1C=N3)N=C[C@@H]1CC3(CC3)CN1C2=O [Compound 1-19, (11aS,11a″S)-8,8″-(((E)-pent-2-ene-1,5-diyl)bis(oxy))bis(7-methoxy-1,11a-dihydro-3H,5H-spiro[benzo[e]pyrrolo[1,2-a][1,4]diazepine-2,1′-cyclopropan]-5-one)]	0.165	88.7	0.052	90.6
COc1cc2c(cc1OCC13CC(COc4cc5c(cc4OC)C(=O)N4Cc6ccccc6C[C@H]4CN5)(C1)C3)N=C[C@@H]1CC3(CC3)CN1C2=O [Compound 1-12, (S)-2-methoxy-3-((3-((((S)-7-methoxy-5-oxo-5,11a-dihydro-1H,3H-spiro[benzo[e]pyrrolo[1,2-a][1,4]diazepine-2,1′-cyclopropan]-8-yl)oxy)methyl)bicyclo[1.1.1]pentan-1-yl)methoxy)-6,6a,7,12-tetrahydrobenzo[5,6][1,4]diazepino[1,2-b]isoquinolin-14(5H)-one]	297	97.5	108	99.4
COc1cc2c(cc1OCCCOc1cc3c(cc1OC)C(=O)N1CC4(CC4)C[C@H]1C=N3)N=C[C@@H]1Cc3ccccc3CN1C2=O [Compound 1-14, (S)-2-methoxy-3-(3-(((S)-7-methoxy-5-oxo-5,11a-dihydro-1H,3H-spiro[benzo[e]pyrrolo[1,2-a][1,4]diazepine-2,1′-cyclopropan]-8-yl)oxy)propoxy)-7,12-dihydrobenzo[5,6][1,4]diazepino[1,2-b]isoquinolin-14(6aH)-one]	0.033	98.9	0.01	99.2
COc1cc2c(cc1OCc1cccc(COc3cc4c(cc3OC)C(=O)N3CC5(CC5)C[C@H]3CN4)c1)NC[C@@H]1CC3(CC3)CN1C2=O [Compound 1-10]	> 1	42	0.358	84.7
COc1cc2c(cc1OCCCCCOc1cc3c(cc1OC)C(=O)N1Cc4ccccc4C[C@H]1C=N3)N=C[C@@H]1CC3(CCN1C2=O)CC3 [Compound 1-20, (S)-2-methoxy-3-((5-(((S)-2-methoxy-12-oxo-6a,9,10,12-tetrahydro-7H-spiro[benzo[e]pyrido[1,2-a][1,4]diazepine-8,1′-cyclopropan]-3-yl)oxy)pentyl)oxy)-7,12-dihydrobenzo[5,6][1,4]diazepino[1,2-b]isoquinolin-14(6aH)-one]	0.064	95.9	0.016	98.3
COc1cc2c(cc1OCCCCCOc1cc3c(cc1OC)C(=O)N1CC4(CC4)C[C@H]1CN3)NC[C@@H]1Cc3ccccc3CN1C2=O [Compound 1-4, (S)-2-methoxy-3-((5-(((S)-7-methoxy-5-oxo-5,10,11,11a-tetrahydro-1H,3H-spiro[benzo[e]pyrrolo[1,2-a][1,4]diazepine-2,1′-cyclopropan]-8-yl)oxy)pentyl)oxy)-6,6a,7,12-tetrahydrobenzo[5,6][1,4]diazepino[1,2-b]isoquinolin-14(5H)-one]	0.14	90.6	0.077	94.9
COc1cc2c(cc1OCCNCCOc1cc3c(cc1OC)C(=O)N1CC4(CC4)C[C@H]1C=N3)N=C[C@@H]1CC3(CC3)CN1C2=O [Compound 1-13, (11aS,11a″S)-8,8″-((azanediylbis(ethane-2,1-diyl))bis(oxy))bis(7-methoxy-1,11a-dihydro-3H,5H-spiro[benzo[e]pyrrolo[1,2-a][1,4]diazepine-2,1′-cyclopropan]-5-one)]	9.12	100	1.62	99.7
